The source of these data is paper PMC12406203 (Journal of Medicinal Chemistry, 2025).

Where “and” joins values, the source holds several entries; their conditions need not be identical. Equal values may be shown once. Read-outs that look alike come from different tables or passages of the source.

The target of data set [1] is hBChE.
Data set [2] deals with hBChE. This is another data set of the same source.
Data set [3] concerns the target T1, human p38α MAPK (Homo sapiens, UniProt Q16539). The data set can be described thus: biochemical. The following applies: p38α MAPK IC50 ± SEM, two independent experiments, each in triplicate.
In data set [4] the target is T2, hAChE (Homo sapiens, UniProt P22303). The following applies: residual activity at 100 μM; mean ± SD, one experiment in triplicate.
T2 sequence (P22303 32-614): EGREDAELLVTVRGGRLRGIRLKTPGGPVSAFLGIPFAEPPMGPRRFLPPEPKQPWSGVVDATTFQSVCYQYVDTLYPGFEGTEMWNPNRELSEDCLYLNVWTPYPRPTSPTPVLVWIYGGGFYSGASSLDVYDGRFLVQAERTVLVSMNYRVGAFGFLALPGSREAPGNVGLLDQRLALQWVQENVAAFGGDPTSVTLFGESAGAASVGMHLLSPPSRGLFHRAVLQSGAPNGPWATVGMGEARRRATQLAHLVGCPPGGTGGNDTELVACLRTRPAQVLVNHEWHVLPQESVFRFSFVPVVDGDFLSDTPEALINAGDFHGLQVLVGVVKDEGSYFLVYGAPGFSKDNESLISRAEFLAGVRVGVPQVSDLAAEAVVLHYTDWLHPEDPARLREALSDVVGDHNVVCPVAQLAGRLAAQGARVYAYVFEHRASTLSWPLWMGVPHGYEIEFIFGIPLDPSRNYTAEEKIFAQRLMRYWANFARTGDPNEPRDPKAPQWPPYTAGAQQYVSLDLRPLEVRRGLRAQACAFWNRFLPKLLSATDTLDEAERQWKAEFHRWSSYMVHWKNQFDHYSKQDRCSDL
Procedure: (§1) The inhibitory potencies of the compounds against the ChEs were determined using the method of Ellman. […] The final content of DMSO was always 1% [v/v]. […] The initial velocities in the presence (v i ) and absence (v 0) of the test compounds were calculated. The inhibitory potencies were expressed as the residual activities, according to RA = (v i – b)/(v 0 – b), where b is the blank value using phosphate buffer without ChEs. For IC50 determinations, at least seven different concentrations for each compound were used. The IC50 values were obtained by plotting the residual ChE activities against the applied inhibitor concentrations, with the experimental data fitted to a four-parameter logistic function (GraphPad Prism 10.0).
In data set [5] the test system is hAChE.
The test system of data set [6] is hAChE. The source holds these as a separate data set.
Data set [7] addresses p38α MAPK.
The target of data set [8] is T3, hBChE (Homo sapiens, UniProt P06276). Nature of the data set: biochemical. The following applies: hBChE IC50 ± SEM, two independent experiments, each in triplicate.
T3 sequence (P06276 29-602): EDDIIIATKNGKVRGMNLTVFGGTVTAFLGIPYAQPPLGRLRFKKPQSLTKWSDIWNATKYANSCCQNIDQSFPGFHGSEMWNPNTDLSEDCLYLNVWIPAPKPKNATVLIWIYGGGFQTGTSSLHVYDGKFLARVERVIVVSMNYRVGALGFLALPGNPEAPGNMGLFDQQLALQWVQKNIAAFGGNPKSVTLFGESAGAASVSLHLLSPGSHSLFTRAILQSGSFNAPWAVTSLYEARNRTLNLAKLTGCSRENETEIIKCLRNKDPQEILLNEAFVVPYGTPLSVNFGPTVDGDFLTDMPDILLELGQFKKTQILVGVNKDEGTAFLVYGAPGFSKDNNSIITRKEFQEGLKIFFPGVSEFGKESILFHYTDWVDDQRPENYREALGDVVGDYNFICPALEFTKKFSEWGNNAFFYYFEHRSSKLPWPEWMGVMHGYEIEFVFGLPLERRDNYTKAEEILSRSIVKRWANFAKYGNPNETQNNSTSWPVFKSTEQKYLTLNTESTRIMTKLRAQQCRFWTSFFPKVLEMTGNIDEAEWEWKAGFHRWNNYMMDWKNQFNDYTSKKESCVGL
Procedure: as §1
The target in data set [9] is p38α MAPK. This is another data set of the same source.
In data set [10] the target is T2, hAChE. Nature of the data set: biochemical. The settings on record: hAChE IC50 ± SEM, two independent experiments, each in triplicate.
Procedure: as §1
Data set [11] deals with T3, hBChE. The following applies: for hBChE RA at 100 μM: residual activity at 100 μM, mean ± SD, one experiment in triplicate.
Procedure: as §1
For data set [12], the target named is T1, human p38α MAPK. The following applies: for p38α MAPK RA at 100 μM: residual activity at 100 μM, mean ± SD, one experiment in triplicate.

T1 sequence (Q16539 whole entry): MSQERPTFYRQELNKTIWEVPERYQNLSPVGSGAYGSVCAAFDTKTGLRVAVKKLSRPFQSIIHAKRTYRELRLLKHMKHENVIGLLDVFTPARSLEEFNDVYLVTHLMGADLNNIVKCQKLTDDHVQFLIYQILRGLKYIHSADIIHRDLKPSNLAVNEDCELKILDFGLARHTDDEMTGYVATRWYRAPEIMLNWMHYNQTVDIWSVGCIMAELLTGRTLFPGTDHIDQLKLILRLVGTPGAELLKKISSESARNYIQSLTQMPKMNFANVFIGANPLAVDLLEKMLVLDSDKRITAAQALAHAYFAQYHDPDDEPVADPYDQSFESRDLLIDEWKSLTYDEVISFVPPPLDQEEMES

In the case of `CC(C)Cn1ncc2cc(Sc3ccc(F)cc3F)c(C(=O)NCCN(C)C)cc21` [Compound 92, 5-((2,4-Difluorophenyl)thio)-N-(2-(dimethylamino)ethyl)-1-isobutyl-1H-indazole-6-carboxamide], the half-inhibitory concentration (IC50) came to 2.25 µM against hBChE [1]; 2.25 µM on hBChE [2]; 0.053 ± 0.017 µM against human p38α MAPK [3]; 0.053 µM against p38α MAPK [7]; 2.25 µM against hBChE [8]. Moreover, at hAChE [4], the “hAChE RA at 100 μM” value was 62.8% and 63 ± 3% and 62.8 ± 3.0%. For the same compound, the results for the “RA at 100 µM” value in the data set on hAChE [5] and in the data set on hAChE [6] were 62.8 ± 3.0% and 63 ± 3%, respectively.

Regarding `CN(C)CCCNC(=O)c1cc2c(cnn2CC2CC2)cc1Oc1ccc(F)cc1F` [Compound 74, 1-(Cyclopropylmethyl)-5-(2,4-difluorophenoxy)-N-(3-(dimethylamino)propyl)-1H-indazole-6-carboxamide], the half-maximal inhibitory concentration (IC50) against p38α MAPK [9] worked out at 0.096 µM; against human p38α MAPK [3], 0.096 ± 0.011 µM; against hAChE [5], 110 µM; against hAChE [10] it was 110 ± 38.4 µM; on hBChE [8], 8.68 ± 1.83 µM.

As for `COCC1CCCN(CCNC(=O)c2cc3c(cnn3CC3CCCCC3)cc2Oc2ccc(F)cc2F)C1` (racemic) [Compound 79, (±)-1-(Cyclohexylmethyl)-5-(2,4-difluorophenoxy)-N-(2-(3-(methoxymethyl)piperidin-1-yl)ethyl)-1H-indazole-6-carboxamide], the IC50 against hBChE [2] is 3.6 µM; against p38α MAPK [9], 0.379 µM; at human p38α MAPK [3], 0.379 ± 0.126 µM; at hBChE [8], 3.6 ± 0.825 µM. For the same compound, in the data set with hAChE [5], the “RA at 100 µM” value was “*11.6 ± 1.3%”.

Consider `CN(C)CCNC(=O)c1cc2nn(CC3CCCCC3)cc2cc1Oc1ccc(F)cc1F` [Compound 99, 2-(Cyclohexylmethyl)-5-(2,4-difluorophenoxy)-N-(2-(dimethylamino)ethyl)-2H-indazole-6-carboxamide], for which the IC50 against human p38α MAPK [3] was 6.78 ± 2.85 µM; on hAChE [6], 28.9 µM; on hAChE [10] it was 28.9 ± 8.16 µM; against p38α MAPK [7], 6.78 µM; at hBChE [8], 0.167 ± 0.0203 µM.

On to `O/N=C/c1cc[n+](COC[n+]2ccc(/C=N/O)cc2)cc1` [Obidoxime, reference compound], for which, under “predicted BBB permeation from Pe”, the “CNS (+/–)” value is “CNS– (CNS– indicates low predicted BBB permeation [Pe (×10–6 cm/s) < 2.0])”.

Consider “5-(2,4-Difluorobenzyl)-N-(2-(dimethylamino)ethyl)-1-methyl-2H-indazole-6-carboxamide [Compound 109]”, for which, at hAChE [4], the “hAChE RA at 100 μM” value is reported as 81.4 ± 7.5%. The IC50 on hBChE [11] (read-out: hBChE IC50 ± SEM, two independent experiments, each in triplicate) amounted to 1.06 ± 0.97 µM. The “p38α MAPK RA at 100 μM” value at human p38α MAPK [12] was 89.6% and 89.6 ± 13.6%.

As for `CC(C)Cn1ncc2cc(Oc3ccc4ccccc4c3)c(C(=O)NCCN(C)C)cc21` [Compound 90, N-(2-(Dimethylamino)ethyl)-1-isobutyl-5-(naphthalen-2-yloxy)-1H-indazole-6-carboxamide], the “RA at 100 µM” value in the data set on p38α MAPK [9] is recorded as 9.5 ± 0.6%. Further, the IC50 against hAChE [5] was found to be 116 µM; on hAChE [10], 116 ± 27.8 µM; against hBChE [8] it was 11.5 ± 2 µM. Further, the “p38α MAPK RA at 100 μM” value on human p38α MAPK [12] came out at 9.5 ± 0.6%.

For `CN(C)CCCNC(=O)c1cc2nn(CC3CCCCC3)cc2cc1Oc1ccc(F)cc1F` [Compound 100, 2-(Cyclohexylmethyl)-5-(2,4-difluorophenoxy)-N-(3-(dimethylamino)propyl)-2H-indazole-6-carboxamide], the IC50 on p38α MAPK [9] stood at 16.2 µM; against human p38α MAPK [3], 16.2 ± 2.97 µM; against hAChE [5], 41.9 µM; against hAChE [10], 41.9 ± 13.9 µM; against hBChE [8], 0.499 ± 0.045 µM.

On to `CN(C)CCNC(=O)c1cc2c(cnn2CC2CC2)cc1Oc1ccc(F)cc1F` [Compound 73, 1-(Cyclopropylmethyl)-5-(2,4-difluorophenoxy)-N-(2-(dimethylamino)ethyl)-1H-indazole-6-carboxamide], for which the IC50 at human p38α MAPK [3] is 0.362 ± 0.139 µM; on hAChE [6], 83.9 µM; at hAChE [10], 83.9 ± 28.9 µM; against p38α MAPK [7], 0.362 µM; on hBChE [8], 10.5 ± 1.51 µM.

`CN(C)CCNC(=O)c1cc2c(cnn2C2C=CCCC2)cc1Oc1ccc(F)cc1F` (stereo not shown) [Compound 83, 1-(Cyclohex-2-en-1-yl)-5-(2,4-difluorophenoxy)-N-(2-(dimethylamino)ethyl)-1H-indazole-6-carboxamide]: the IC50 against hBChE [1] is 8.35 µM; at hBChE [2], 8.35 µM; at human p38α MAPK [3], 0.088 ± 0.02 µM; at p38α MAPK [7], 0.088 µM; at hBChE [8], 8.35 µM. In addition, at hAChE [4], the “hAChE RA at 100 μM” value was 52.9% and 53 ± 3% and 52.9 ± 2.7%. Besides, the “RA at 100 µM” value with hAChE [5] is recorded as 52.9 ± 2.7%; in the data set with hAChE [6] it was 53 ± 3%.

`CC(C)Cn1ncc2cc(S(=O)(=O)c3ccc(F)cc3F)c(C(=O)NCCN(C)C)cc21` [Compound 93, 5-((2,4-Difluorophenyl)sulfonyl)-N-(2-(dimethylamino)ethyl)-1-isobutyl-1H-indazole-6-carboxamide]: the entries for the “RA at 100 µM” value with hBChE [2], in the data set on p38α MAPK [9] and in the data set on hAChE [5] were 77.6 ± 3.1%, 5.9 ± 0.2% and 98.0 ± 2.7%, respectively. Also, at hAChE [4], the “hAChE RA at 100 μM” value is 98.0% and 98.0 ± 2.7%. For the same compound, the “hBChE RA at 100 μM” value at hBChE [11] was 77.6% and 77.6 ± 3.1%. Also, on human p38α MAPK [12], the “p38α MAPK RA at 100 μM” value amounted to 5.9 ± 0.2%.

With `CO/N=C(\C(=O)N[C@@H]1C(=O)N2C(C(=O)O)=C(COC(N)=O)CS[C@H]12)c1ccco1` [Cefuroxime, reference compound], the “CNS (+/–)” value (PAMPA) was “CNS– (key: CNS+ indicates high predicted BBB permeation [Pe (×10–6 cm/s) > 4.0]; CNS– indicates low predicted BBB permeation [Pe (×10–6 cm/s) < 2.0])”.

In the case of `COC1CCCN(CCNC(=O)c2cc3nn(CC4CCCCC4)cc3cc2Oc2ccc(F)cc2F)C1` (stereo not shown) [Compound 101], the half-inhibitory concentration (IC50) worked out at 0.184 µM at hBChE [2] and 0.184 ± 0.031 µM at hBChE [8]. The “RA at 100 µM” value in the data set on p38α MAPK [9] is given as 94.3 ± 2.4%; with hAChE [5], 51.8 ± 1.6%. Also, the “hAChE RA at 100 μM” value on hAChE [4] was determined as 51.8 ± 1.6%. In addition, the “p38α MAPK RA at 100 μM” value on human p38α MAPK [12] is 94.3% and 94.3 ± 2.4%.

Turning to “N-(2-(1H-Pyrrol-1-yl)ethyl)-1-(cyclohexylmethyl)-5-(2,4-difluorophenoxy)-2H-indazole-6-carboxamide [Compound 104]”, at hAChE [4], the “hAChE RA at 100 μM” value is 67.6 ± 2.3%. In addition, on hBChE [11], the “hBChE RA at 100 μM” value is listed as 34.4±1.5%. Also, the “p38α MAPK RA at 100 μM” value at human p38α MAPK [12] is 81.2% and 81.2 ± 6.6%.

Take `CC(C)Cn1ncc2cc(Oc3ccc(F)cc3)c(C(=O)NCCN(C)C)cc21` [Compound 88, N-(2-(Dimethylamino)ethyl)-5-(4-fluorophenoxy)-1-isobutyl-1H-indazole-6-carboxamide]: the IC50 on hBChE [2] was found to be 6.38 µM; against p38α MAPK [9] it was 0.276 µM; at human p38α MAPK [3], 0.276 ± 0.015 µM; at hAChE [5], 71.3 µM; against hBChE [8], 6.38 ± 0.511 µM.

For `O=C(NCCN1CCOCC1)c1cc2nn(CC3CCCCC3)cc2cc1Oc1ccc(F)cc1F` [Compound 103], the IC50 came to 10.8 µM at hBChE [2] and 10.8 ± 2.07 µM against hBChE [8]. The results for the “RA at 100 µM” value in the data set with p38α MAPK [9] and in the data set on hAChE [5] were 66.8 ± 5.9% and 78.3 ± 2.1%, respectively. The “hAChE RA at 100 μM” value on hAChE [4] is reported as 78.3 ± 2.1%. Further, the “p38α MAPK RA at 100 μM” value on human p38α MAPK [12] is 66.8% and 66.8 ± 5.9%.

Turning to “Methyl-1-(cyclopropylmethyl)-5-(2,4-difluorophenoxy)-1H-indazole-6-carboxylate [Compound 27]”, the “hAChE RA at 100 μM” value on hAChE [4] was 81.1% and 81.1 ± 2.3%. In addition, at hBChE [11], the “hBChE RA at 100 μM” value was 76.6% and 76.6 ± 11.7%. In addition, the IC50 at human p38α MAPK [12] (read-out: p38α MAPK IC50 ± SEM, two independent experiments, each in triplicate) stood at 0.33 ± 0.158 µM.

Take `O=C(NCCn1ccnc1)c1cc2c(cnn2CC2CCCCC2)cc1Oc1ccc(F)cc1F` [Compound 82, N-(2-(1H-Imidazol-1-yl)ethyl)-1-(cyclohexylmethyl)-5-(2,4-difluorophenoxy)-1H-indazole-6-carboxamide]: the IC50 at hBChE [2] amounted to 18.7 µM; against p38α MAPK [9], 0.218 µM; at human p38α MAPK [3], 0.218 ± 0.017 µM; at hBChE [8] it was 18.7 ± 6.1 µM. Besides, the “hAChE RA at 100 μM” value on hAChE [4] was 65.1% and 65.1 ± 2.5%. The “RA at 100 µM” value in the data set on hAChE [5] is given as 65.1 ± 2.5%.

Regarding `CN(C)CCNC(=O)c1cc2c(cnn2CC2CCCCC2)cc1Oc1ccc(F)cc1F` [Compound 75, 1-(Cyclohexylmethyl)-5-(2,4-difluorophenoxy)-N-(2-(dimethylamino)ethyl)-1H-indazole-6-carboxamide], the IC50 is 0.142 ± 0.079 µM against human p38α MAPK [3]; 64.4 µM at hAChE [5]; 64.4 µM against hAChE [6]; 64.4 ± 24.5 µM on hAChE [10]; 0.142 µM against p38α MAPK [7]; 2.89 µM and 2.9 µM on hBChE [8].

Regarding `CC(C)Cn1ncc2cc(Oc3cccc4ccccc34)c(C(=O)NCCN(C)C)cc21` [Compound 89, N-(2-(Dimethylamino)ethyl)-1-isobutyl-5-(naphthalen-1-yloxy)-1H-indazole-6-carboxamide], the “RA at 100 µM” value with p38α MAPK [9] was determined as 0.9 ± 0.3%. The IC50 against hAChE [5] worked out at 61.3 µM; against hAChE [6], 61.3 µM; against hAChE [10], 61.3 µM; at hBChE [8], 10.6 µM. The “p38α MAPK RA (1 μM)” value on human p38α MAPK [12] (residual activity at 1 μM) is on record as 24 ± 0%. Further, on human p38α MAPK [12] (residual activity at 10 μM), the “p38α MAPK RA (10 μM)” value worked out at 5 ± 0%. The “p38α MAPK RA at 100 μM” value on human p38α MAPK [12] was 0.9 ± 0.3% and 1 ± 0%. In addition, in the data set on p38α MAPK [7], the “RA (1 μM)” value was “RA (1 μM): 24 ± 0%”. Also, the “RA (10 μM)” value in the data set on p38α MAPK [7] is “RA (10 μM): 5 ± 0%”. Further, in the data set on p38α MAPK [7], the “RA (100 μM)” value was “RA (100 μM): 1 ± 0%”.
